We go through six compounds from patent US8802635B2, “Antioxidant, anti-inflammatory, anti-radiation, metal chelating compounds and uses thereof” (Oneday—Biotech And Pharma Ltd., priority 2011, dated 2014).

Data set [1] relates to JNK (c-Jun N-terminal kinases). The experiment in a line: Inhibition of oxidative stress (auranofin)-induced JNK phosphorylation in SH-SY5Y cells. The data set is classed as cell-based, Human. The settings on record: auranofin 5 μM. The method, then: (§1) Human neuroblastoma SH-SY5Y cells were maintained in Dulbecco's modified Eagle's medium (DMEM, Invitrogen) supplemented with 10% fetal bovine serum (Invitrogen), 100 μg/ml streptomycin and 100 U/ml penicillin G (Gibco). Cells were plated at a density of 6.25×10^4/cm^2 and incubated for 24 hours, after which they were exposed to different treatments.
(§2) SH-SY5Y cells were plated on 96-well plates and treated with Auranofin (AuF) (5 μM) for 30 min. Then the cells were washed with PBS and treated with either one of the peptides at the indicated concentrations. Twenty-four hours later, the cells were fixed with glutaraldehyde in final concentration of 0.5% for 10 min. Cells were washed 3 times with DDW dried over night, and washed once with borate buffer (0.1M, pH 8.5). The fixed cells were stained with 200 μl of 1% methylene blue dissolved in borate buffer for 1 hour. After extensive washing and drying, the color was extracted with 200 μl of 0.1 M HCl for 1 h at 37° C. and absorbance was read in spectrophotometer at 630 nm.
(§3) Twenty to thirty micrograms of protein samples were loaded on 10-12% SDS-PAGE gels. The proteins were then transferred electrophoretically to nitrocellulose (Whatman, Germany). The blots were blocked by incubation for 1 h at room temperature (RT) in TBS-T (25 mM Tris-HCl pH 7.4, 0.9% NaCl and 0.02% Tween-20) with 4% Difco skim milk (BD, USA), and incubated over-night at 4° C. with the primary antibody: pERK1/2 (Thr 202/Tyr204), mouse mAb, (1:6,000); p-SAPK/JNK (Thr183/Tyr185), rabbit mAb; SAPK/JNK, mouse mAb; p-p38MAP Kinase (Thr180/Tyr182), rabbit mAb; cleaved caspase 3, rabbit mAb. All antibodies were from Cell Signaling Tech. USA, used at 1:1000. Purified b Catenin, mouse mAb, (1:10,000; BD Transduction Laboratories, USA) diluted in 5% BSA, 0.04% Azide in TBS-T. Proteins were detected with Anti-Mouse or Anti-Rabbit IgG-HRP linked antibody (1:10,000; Cell Signaling, Tech. USA).

The next data set concerns p38 MAP Kinase. The experiment in a line: Inhibition of oxidative stress (auranofin)-induced p38 phosphorylation in SH-SY5Y cells. The note with it: auranofin 5 μM. It is filed as cell-based, Human. The method, then: as §1, §2, §3
Data set [2] deals with HaCaT cells. The experiment in a line: Hydrogen peroxide-induced HaCaT keratinocyte cytotoxicity (MTT). The settings on record: for protection of cell viability after hydrogen peroxide exposure (in words): 90 μM hydrogen peroxide 30 min, MTT after 72 hours. It is filed as cell-based. The method, then: All five peptides were examined in this Example, and their activity was compared to the known CB3 peptide. HaCaT cells were seeded in 96-well plate at a concentration of 10×10^4 cells/ml for 24 hours. Then cells were incubated with the peptides at the indicated concentrations for 2.5 hours followed by washing with PBS and incubation with 90 μM hydrogen peroxide (without peptide) for 30 minutes. Cells were washed with PBS and incubated with culture medium containing peptide for 72 hours. Cell viability was tested by MTT. The effect of the peptides on cell viability was performed similarly without hydrogen peroxide exposure.

Data set [3] has as its system carrageenan-induced hind paw swelling. Description: Carrageenan-induced hind paw swelling. The data set is classed as in vivo, mice. The settings on record: 150 mg/kg i.p. 30 min prior to carrageenan. The method, then:
The above new five peptides were examined for anti-inflammatory activity, and their activity was compared to that of peptide CB3. Male ICR mice received an i.p. administration of each of the tested peptide (150 mg/kg) 30 min prior to the injection of carrageenan into the sub-plantar area of both of the animal's hind paws. Carrageenan was dissolved in water at concentration of 3 mg/ml and injected at a volume of 50 μl. Hind paw thickness was measured by Mitutoyo® micrometer before carrageenan injection and afterward at intervals of 1 hour between each measurement. Swelling was calculated as the difference between the thickness of the hind paw measured at each time interval and its size at time 0 (before carrageenan injection). n=6 foot pads (3 animals) for each group.

Data set [4] concerns alanine aminotransferase (ALT) in plasma / liver necrosis. Description: Concanavalin A-induced liver inflammation in C57BL/6 mice. The data set is classed as in vivo. The note with it: ConA dose 180 μg/mouse. The method, then:
Six groups of C57BL/6 female mice (7-8 weeks old) containing 6 mice in each group were injected i.p. with different peptide on days −3, −2, −1 at a dose of 50 mg/kg or with PBS alone. On day zero all the mice were injected i.v. with 250 μg/mouse of Con A and 45 min. later they were injected i.p. with 150 mg/kg of each peptide or PBS.
Eight hours after Con A injection mice were bled into heparinized tubes (approx. 150 ul of blood from each mouse) and the levels of alanine aminotransferase (ALT) was measured in the plasma.
One day later the mice were sacrificed and their livers were placed in 4% formalin and sent for pathological examination.
Next, peptide DY-66 was examined and compared to N-acetylcysteine (NAC), CB3 and CB4. The compounds were tested according to the procedure described above. ConA dose was 180 μg/mouse.
FIG. 8 presents the change in ALT levels (%) for each of the tested compounds compared to PBS treatment (i.e., the ratio between ALT levels in samples obtained from mice treated with a tested compound and ALT levels in samples obtained from PBS-treated mice)

In data set [5] the test system is cellularity of the peritoneal exudates. Description: Ovalbumin-induced hypersensitivity (allergic peritonitis): peritoneal cellularity. The data set is classed as in vivo, mice. The settings on record: 125 mg/kg i.p. on days 13, 14, 15. The method, then: (§4) Male BALB/c mice (6-8 weeks old) were housed under specific pathogen-free conditions and maintained on a 12-hour light/dark cycle, with food and water ad libitum. All materials and drugs were obtained from Sigma, Inc.
(§5) Mice in Groups A, B, C, and E (n=10 per group) were sensitized with intraperitoneal (i.p.) 200 μl of sterile PBS containing 100 μg ovalbumin (OVA) and 1.6 mg alum on days 0 and 7, and challenged with intraperitoneal (i.p.) 200 μl of sterile PBS containing 10 μg ovalbumin (OVA) on day 14 in order to induce an experimental model of allergic peritonitis. Mice in Group F (n=10) were injected with intraperitoneal (i.p) 200 μl sterile PBS (“sham” group, no OVA and no Alum).
(§6) Mice in Groups A, B, and C, were treated with 150 μl of sterile PBS containing peptides DY-66, DY-65 and DY-70, respectively, at a dose of 125 mg/kg on days 13, 14, and 15 via an i.p. route of administration.
(§7) Mice in Groups E and F were treated with 150 μl of sterile PBS on days 13, 14, and 15 via an i.p. route of administration. On day 14 the test articles (or PBS vehicle) were injected 30 minutes before injecting the OVA.

In the next data set the test system is IkappaBalpha. Description: Cytoplasmic stability of I-kappaBalpha in lung, zymosan-induced inflammation. It is filed as in vivo, mice. The note with it: lung tissue, 24 hours after zymosan. The method, then:
Male BALB/c mice were randomly allocated into the following experimental groups:
The peptides were administered by an intraperitoneal (i.p.) route of administration as described in Example 3.
The peptides were formulated in D5W as described in Example 3. The vehicle control was D5W.
At 24 hours after administration of zymosan, animals were euthanized and assessed for inflammation by an NF-κB analysis of lung tissue.
Tissues were homogenized and nuclear extracts prepared via centrifugation. ELISA for IkappaBalpha was performed, using a series of standards in order to define absolute concentrations.

A short description of data set [6]: Metal chelation: copper binding by mass spectra (ESI). The note with it: 0.83 mM peptide, 1.66 mM CuSO4, 1 hour room temperature. The method, then:
(§8) All five peptides were examined for their ability to bind copper and ferric ions. 0.83 mM of each peptide were mixed with 1.66 mM of either FeCL3 or CuSO4. The mixtures were incubated for 1 hour at room temperature and further kept at ° 4 C until analysis. Samples were analyzed by mass spectra (ESI).

In another data set the test system is anti-OVA serum IgE. Description: Ovalbumin-induced hypersensitivity: serum anti-OVA IgE. It is filed as in vivo, mice. The note with it: 125 mg/kg i.p. on days 13, 14, 15; blood day 16. The method, then:
as §4, §5, §6, §7
Blood taken on day 16 was tested for 1) serum anti-OVA IgE, 2) white blood cell count and differential (including absolute and percentage of eosinophils count). Serum was frozen at −80° C. for future optional blood tests.

The test system of data set [7] is malondialdehyde (MDA) in lung tissue. The experiment in a line: MDA (lipid peroxidation) in lung, zymosan-induced inflammation. The data set is classed as in vivo, mice. The note with it: i.p. 3x50 mg/kg before, 120 mg/kg 30 min before and 5 h after zymosan; 24 h; p<0.05. The method, then:
Male BALB/c mice were randomly allocated into the following experimental groups (8 mice for each group):
The peptides were administered by an intraperitoneal (i.p.) route of administration as follows: • The first dose (50 mg per kg) was given 3 days before the zymosan injection. • The second dose (50 mg per kg) was given 2 days before the zymosan injection. • The third dose (50 mg per kg) was given 1 day before the zymosan injection. • The fourth dose (120 mg per kg) was given 30 minutes before the zymosan injection. • The fifth dose (120 mg per kg) was given 5 hours after the zymosan injection.
The peptides were formulated in D5W (5% dextrose in water, “D5W”). The vehicle control was D5W. At 24 hours after administration of zymosan, animals were euthanized and assessed for inflammation by an MDA (malondialdehyde) analysis of lung tissue. All the materials and drugs (apart from the peptides) were obtained from Sigma, Inc.
Malondialdehyde (MDA) formation was used to quantify lipid peroxidation, measured as thiobarbituric acid-reactive material. […] After cooling to room temperature, samples were cleared by centrifugation at 10,000 g for 10 min and absorbance was measured at 532 nm using 1,1,3,3-tetramethoxypropane as an external standard. The level of lipid peroxides was expressed as nM MDA/mg protein.

Data set [8] relates to HaCaT cells. Description: UVB-induced cytotoxicity in HaCaT cells (MTT). The data set is classed as cell-based. The note with it: UVB 0.05 J/cm^2; MTT after 72 hours. The method, then:
HaCaT cells were seeded in 96-wells plate (10×10^4/ml) and incubated in 37° C., 6% CO2 for 24 hours. Cells were incubated with the peptides at the indicated concentrations for 2.5 hours and washed (PBS). Then 100 μl PBS were added to each well followed by UVB irradiation (0.05 J/cm^2). Cells were washed with PBS and incubated with culture medium (DMEM, 100 μl) containing the peptides. MTT assay was carried out after 72 hours.

Data set [9] is described as follows: Metal chelation: ferric ion binding by mass spectra (ESI). The settings on record: 0.83 mM peptide, 1.66 mM FeCL3, 1 hour room temperature. The method, then:
as §8

Starred links: 1 amine or outer side, 2 acyl side, 3 side chain; linkers in the order of their positions; H or OH if unused. Non-standard residues stand in square brackets, D forms with d. γGlu = O=C(O)[C@H](CCC(=O)[*:2])N[*:1]

As to “N-acetyl-Cys-γGlu-Cys-Cys-NH2 (Ac-C[γGlu]CC-NH2; cysteine pairing not given here) [DY-71]”, the IC50 in [1] turned out to be 82.3 µM; in the data set with p38 MAP Kinase it was 46.9 µM. Besides, the “protection of cell viability after hydrogen peroxide exposure (in words)” value (from here on “protection of cell viability”) in the data set with HaCaT cells [2] is reported as “slightly elevated cell viability”.

Take “N-acetyl-Cys-Pro-Cys-NH2 (Ac-Cys-Pro-Cys-NH2; cysteine pairing not given here) [CB3, reference compound]”: in data set [3], the “hind paw swelling compared to control (in words)” value is recorded as “did not show a significant reduction”. Also, the “ALT level compared to PBS-treated mice (in words)” value in data set [4] was “highly increased ALT level”. Further, the “protection of cell viability” value with HaCaT cells [2] is recorded as “slightly elevated cell viability”.

Consider “N-acetyl-Cys-Met-Lys-Cys-NH2 (Ac-CMKC-NH2; cysteine pairing not given here) [DY-70]”, for which, in data set [5], the “effect on OVA-induced elevation of peritoneal exudate cellularity (in words)” value is “significantly reduced the elevation” and the “rank order of reduction of peritoneal exudate cellularity” value is listed as “DY-65>DY-70>DY-66”. For the same compound, the “rank order of efficacy on cytoplasmic IkappaBalpha” value in the data set with IkappaBalpha was “DY-70>DY-65>DY-66”. The “copper binding (in words)” value in data set [6] is on record as “low degree”. In the data set on anti-OVA serum IgE, the “effect on OVA-induced elevation of anti-OVA serum IgE titer (in words)” value was “significantly reduced the elevation” and the “rank order of reduction of anti-OVA serum IgE titer” value is “DY-65>DY-70>DY-66”. The compound further registered an IC50 in data set [1] of 22.1 µM. This compound showed an IC50 with p38 MAP Kinase of 22.2 µM. In addition, the “effect on zymosan-induced elevation of MDA in lung tissue (in words)” value in data set [7] is “inhibited the elevation in MDA concentration”. In the data set on HaCaT cells [2], the “protection of cell viability” value is recorded as “fully protected the cells from hydrogen peroxide”. The “protection against UVB-induced cytotoxicity (in words)” value with HaCaT cells [8] is given as “protective effect at low concentrations”. In addition, the “FeCl binding (in words)” value in data set [9] is “low degree”.

For the compound `CC(=O)N[C@@H](CS)C(=O)O` [NAC, N-acetylcysteine, reference compound], in [4], the “ALT level compared to PBS-treated mice (in words)” value is on record as “did not induce a significant change in ALT level”.

In the case of “N-acetyl-Cys-γGlu-Cys-NH2 (Ac-Cys-[γGlu]-Cys-NH2; cysteine pairing not given here) [DY-67]”, in data set [3], the “hind paw swelling compared to control (in words)” value is listed as “Reduced swelling compared to control”. Moreover, the figures for the IC50 (in [1]; with p38 MAP Kinase) were 67.3 µM and 36.5 µM, respectively. Further, the “increase in cell viability” value in the data set on HaCaT cells [2] (concentrations of 1-10 μM) is reported as “about 45%”.

For the compound “N-acetyl-Cys-Gly-Pro-Cys-NH2 (Ac-CGPC-NH2; cysteine pairing not given here) [CB4, reference compound]”, in data set [4], the “ALT level compared to PBS-treated mice (in words)” value is reported as “highly increased ALT level”.

As usually defined, the IC50 is the concentration needed to halve the response being measured. The low end stands for inhibition by little substance, the high end for a need for much substance.
